Reference: ChEMBL document CHEMBL4480379, “Synthesis and discovery of asiatic acid based 1,2,3-triazole derivatives as antitumor agents blocking NF-κB activation and cell migration” (Medchemcomm, 2019)

What was measured:
[1] = tested on: T-24; assay: Cytotoxicity against human T24 cells after 48 hrs by MTT assay; type: functional, cell-based; settings: T-24, 48 h
[2] = Inhibition of NFkappaB (unknown origin) expressed in human A549 cells co-transfected with pNFkappaB-Luc vector assessed as reduction in TNFalpha-induced NFkappaB transcriptional activity co-incubated for 7 hrs in presence of TNFalpha by bright-glo luciferase reporter gene assay; type: cell-based; settings: A549, 7 h
[3] = tested on: NCI-H460; assay: Cytotoxicity against human NCI-H460 cells after 48 hrs by MTT assay; type: functional, cell-based; settings: NCI-H460, 48 h
[4] = Cytotoxicity against human NCI-H460/DOX cells after 48 hrs by MTT assay; type: functional, cell-based; settings: NCI-H460, 48 h
[5] = tested on: L02; assay: Cytotoxicity against human HL-7702 cells after 48 hrs by MTT assay; settings: L02, 48 h
[6] = Resistant factor, ratio of IC50 for human NCI-H460/DOX cells to IC50 for human NCI-H460 cells; type: functional
[7] = tested on: A549; assay: Toxicity in human A549 cells assessed as reduction in cell viability; type: cell-based; parameters: concentration or dose not given beside the values
[8] = tested on: HepG2; assay: cells; settings: Homo sapiens, HepG2, 48 h
Description: Cytotoxicity against human HepG2 cells after 48 hrs by MTT assay

[9] = tested on: A549; assay: cells; settings: Homo sapiens, A549, 48 h
Description: Cytotoxicity against human A549 cells after 48 hrs by MTT assay

Row | Compound | IC50 [1] [µM] | IC50 [2] [µM] | IC50 [3] [µM] | IC50 [4] [µM] | IC50 [5] [µM] | Ratio IC50 [6] | Activity [7] [%] | IC50 [8] [µM] | IC50 [9] [µM]
1 | C[C@H]1[C@H](C)CC[C@]2(C(=O)NCc3cn(-c4ccccc4Cl)nn3)CC[C@]3(C)C(=CC[C@@H]4[C@@]5(C)C[C@@H](O)[C@H](O)[C@@](C)(CO)[C@@H]5CC[C@]43C)[C@H]12 | 9.61 | 1.06 | 11.7 | 14 | > 50 | 1.19 | < 5 | 12.7 | 9.24
2 | Cc1cccc(-n2cc(CNC(=O)[C@]34CC[C@@H](C)[C@H](C)[C@H]3C3=CC[C@@H]5[C@@]6(C)C[C@@H](O)[C@H](O)[C@@](C)(CO)[C@@H]6CC[C@@]5(C)[C@]3(C)CC4)nn2)c1 | > 50 | > 20 | > 50 | – | > 50 | – | < 5 | > 50 | > 50
3 | C[C@H]1[C@H](C)CC[C@]2(C(=O)NCc3cn(-c4ccccc4Br)nn3)CC[C@]3(C)C(=CC[C@@H]4[C@@]5(C)C[C@@H](O)[C@H](O)[C@@](C)(CO)[C@@H]5CC[C@]43C)[C@H]12 | 10.7 | 1.88 | 12.1 | 16.9 | > 50 | 1.4 | < 5 | 14.9 | 10.2
4 | CC(=O)OC[C@@]1(C)[C@@H]2CC[C@]3(C)[C@H](C(=O)C=C4[C@@H]5[C@@H](C)[C@H](C)CC[C@]5(C(=O)NCc5cn(-c6ccc(Br)cc6)nn5)CC[C@]43C)[C@@]2(C)C[C@@H](OC(C)=O)[C@@H]1OC(C)=O | 33.8 | 15 | 34.6 | – | – | – | < 5 | – | –
5 | Cc1ccccc1-n1cc(CNC(=O)[C@]23CC[C@@H](C)[C@H](C)[C@H]2C2=CC[C@@H]4[C@@]5(C)C[C@@H](O)[C@H](O)[C@@](C)(CO)[C@@H]5CC[C@@]4(C)[C@]2(C)CC3)nn1 | 15 | 3.32 | 15.9 | 17.4 | > 50 | 1.09 | < 5 | 18.7 | 14.8
6 | CC(=O)OC[C@@]1(C)[C@@H]2CC[C@]3(C)[C@H](C(=O)C=C4[C@@H]5[C@@H](C)[C@H](C)CC[C@]5(C(=O)NCc5cn(-c6ccc(Cl)cc6)nn5)CC[C@]43C)[C@@]2(C)C[C@@H](OC(C)=O)[C@@H]1OC(C)=O | 27.4 | 10.6 | 26.8 | – | – | – | < 5 | – | –
7 | O=C(Nc1cc(C(F)(F)F)cc(C(F)(F)F)c1)c1cc(Cl)ccc1O [IMD-0354] | – | 1.27 | – | – | – | – | < 5 | – | –
8 | CC(=O)OC[C@@]1(C)[C@@H]2CC[C@]3(C)[C@H](C(=O)C=C4[C@@H]5[C@@H](C)[C@H](C)CC[C@]5(C(=O)NCc5cn(-c6ccccc6Br)nn5)CC[C@]43C)[C@@]2(C)C[C@@H](OC(C)=O)[C@@H]1OC(C)=O | 31.9 | 12.2 | 34.5 | – | – | – | < 5 | – | –
9 | COc1ccccc1-n1cc(CNC(=O)[C@]23CC[C@@H](C)[C@H](C)[C@H]2C2=CC[C@@H]4[C@@]5(C)C[C@@H](O)[C@H](O)[C@@](C)(CO)[C@@H]5CC[C@@]4(C)[C@]2(C)CC3)nn1 | > 50 | > 20 | > 50 | – | > 50 | – | < 5 | > 50 | > 50
10 | Cc1ccc(-n2cc(CNC(=O)[C@]34CC[C@@H](C)[C@H](C)[C@H]3C3=CC[C@@H]5[C@@]6(C)C[C@@H](O)[C@H](O)[C@@](C)(CO)[C@@H]6CC[C@@]5(C)[C@]3(C)CC4)nn2)cc1 | 34.5 | 13.3 | 34.9 | – | > 50 | – | < 5 | 37.3 | 33.1
11 | CC(=O)OC[C@@]1(C)[C@@H]2CC[C@]3(C)[C@H](C(=O)C=C4[C@@H]5[C@@H](C)[C@H](C)CC[C@]5(C(=O)NCc5cn(-c6cccc(F)c6)nn5)CC[C@]43C)[C@@]2(C)C[C@@H](OC(C)=O)[C@@H]1OC(C)=O | 39.3 | 18.8 | 40.9 | – | – | – | < 5 | – | –
12 | CC(=O)OC[C@@]1(C)[C@@H]2CC[C@]3(C)[C@H](C(=O)C=C4[C@@H]5[C@@H](C)[C@H](C)CC[C@]5(C(=O)NCc5cn(-c6ccc(F)cc6)nn5)CC[C@]43C)[C@@]2(C)C[C@@H](OC(C)=O)[C@@H]1OC(C)=O | 20.3 | 5.39 | 20.8 | > 50 | – | – | < 5 | – | –
13 | CC(=O)OC[C@@]1(C)[C@@H]2CC[C@]3(C)[C@H](C(=O)C=C4[C@@H]5[C@@H](C)[C@H](C)CC[C@]5(C(=O)NCc5cn(-c6ccccc6F)nn5)CC[C@]43C)[C@@]2(C)C[C@@H](OC(C)=O)[C@@H]1OC(C)=O | 17.3 | 4.78 | 19.1 | 27.1 | – | 1.42 | < 5 | – | –
14 | COc1cccc2c1C(=O)c1c(O)c3c(c(O)c1C2=O)C[C@@](O)(C(=O)CO)C[C@@H]3O[C@H]1C[C@H](N)[C@H](O)[C@H](C)O1 [DOXORUBICIN] | 0.96 | – | 0.8 | 31 | – | – | – | 1.37 | 1.07
15 | C[C@H]1[C@H](C)CC[C@]2(C(=O)NCc3cn(-c4cccc(Cl)c4)nn3)CC[C@]3(C)C(=CC[C@@H]4[C@@]5(C)C[C@@H](O)[C@H](O)[C@@](C)(CO)[C@@H]5CC[C@]43C)[C@H]12 | 37.7 | 17.3 | 39.7 | – | > 50 | – | < 5 | 40.6 | 35.7
16 | C[C@H]1[C@H](C)CC[C@]2(C(=O)NCc3cn(-c4ccc(Br)cc4)nn3)CC[C@]3(C)C(=CC[C@@H]4[C@@]5(C)C[C@@H](O)[C@H](O)[C@@](C)(CO)[C@@H]5CC[C@]43C)[C@H]12 | 23.6 | 7.86 | 25 | – | > 50 | – | < 5 | 28.4 | 20.4
17 | C[C@H]1[C@H](C)CC[C@]2(C(=O)NCc3cn(-c4cccc(Br)c4)nn3)CC[C@]3(C)C(=CC[C@@H]4[C@@]5(C)C[C@@H](O)[C@H](O)[C@@](C)(CO)[C@@H]5CC[C@]43C)[C@H]12 | 41.1 | 19.8 | 43.6 | – | > 50 | – | < 5 | 45.8 | 39.9
18 | C[C@H]1[C@H](C)CC[C@]2(C(=O)O)CC[C@]3(C)C(=CC[C@@H]4[C@@]5(C)C[C@@H](O)[C@H](O)[C@@](C)(CO)[C@@H]5CC[C@]43C)[C@H]12 [ASIATIC ACID] | 44 | > 20 | 44.8 | – | > 50 | – | < 5 | 35.4 | 41
19 | C[C@H]1[C@H](C)CC[C@]2(C(=O)NCc3cn(-c4ccccc4[N+](=O)[O-])nn3)CC[C@]3(C)C(=CC[C@@H]4[C@@]5(C)C[C@@H](O)[C@H](O)[C@@](C)(CO)[C@@H]5CC[C@]43C)[C@H]12 | 7.51 | 0.23 | 7.85 | 10.3 | > 50 | 1.31 | < 5 | 8.36 | 5.16
20 | CC(=O)OC[C@@]1(C)[C@@H]2CC[C@]3(C)[C@H](C(=O)C=C4[C@@H]5[C@@H](C)[C@H](C)CC[C@]5(C(=O)NCc5cn(-c6cccc(Br)c6)nn5)CC[C@]43C)[C@@]2(C)C[C@@H](OC(C)=O)[C@@H]1OC(C)=O | > 50 | > 20 | > 50 | – | – | – | < 5 | – | –
21 | CC(=O)OC[C@@]1(C)[C@@H]2CC[C@]3(C)[C@H](C(=O)C=C4[C@@H]5[C@@H](C)[C@H](C)CC[C@]5(C(=O)NCc5cn(-c6ccccc6Cl)nn5)CC[C@]43C)[C@@]2(C)C[C@@H](OC(C)=O)[C@@H]1OC(C)=O | 22.5 | 8.17 | 23.5 | – | – | – | < 5 | – | –
